Laboratory results published in article PMC7797062, “Structural basis for guide RNA trimming by RNase D ribonuclease in Trypanosoma brucei” (Nucleic Acids Research, 2020).

Assays:
[1] = biological target: T1, TbRND (RND-WT) (Trypanosoma brucei, UniProt Q38DE2); experiment: X-ray crystal structure (soak of apo crystals); format: binding; conditions: 10 mM NMP and 10 mM MnCl2 soak, 10 min
T1 construct: gene Tb09.211.3670; residues 41-390 (N-terminal 40 residues with mitochondrial localization signal removed); codon-optimized gene; E. coli BL21(DE3); His-Sumo tag cut with Ulp1; monomer per asymmetric unit
T1 sequence (Q38DE2 41-390): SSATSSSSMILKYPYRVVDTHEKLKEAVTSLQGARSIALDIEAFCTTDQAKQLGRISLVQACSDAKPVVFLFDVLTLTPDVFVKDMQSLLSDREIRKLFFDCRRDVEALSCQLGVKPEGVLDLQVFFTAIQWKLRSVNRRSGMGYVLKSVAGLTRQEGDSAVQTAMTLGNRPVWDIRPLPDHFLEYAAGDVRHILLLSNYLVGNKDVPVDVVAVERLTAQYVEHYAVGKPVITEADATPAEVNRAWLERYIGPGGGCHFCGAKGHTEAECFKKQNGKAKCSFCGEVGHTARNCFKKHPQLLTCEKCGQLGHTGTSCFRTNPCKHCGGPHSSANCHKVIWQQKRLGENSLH

[2] = biological target: T2, RND-Exo (Trypanosoma brucei, UniProt Q38DE2 41-296); experiment: EMSA; no obvious shift up to 20 uM protein, 0.2 uM RNA; EMSA: 20 mM Tris-HCl pH 8.0, 200 mM NaCl, 2 mM DTT, 0.2 uM FAM-RNA, 1 h on ice; 6% native PAGE in 0.5x TBE at 4 C; conditions: protein: recombinant; tags: His-SUMO removed by Ulp1; label: 5'-FAM; single strand
T2 sequence: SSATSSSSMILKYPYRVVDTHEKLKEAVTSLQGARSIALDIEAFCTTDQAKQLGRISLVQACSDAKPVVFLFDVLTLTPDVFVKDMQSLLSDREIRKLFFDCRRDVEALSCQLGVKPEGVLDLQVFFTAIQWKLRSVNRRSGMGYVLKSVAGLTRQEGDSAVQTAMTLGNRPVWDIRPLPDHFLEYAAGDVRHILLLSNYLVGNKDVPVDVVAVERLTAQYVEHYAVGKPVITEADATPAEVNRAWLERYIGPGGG

[3] = biological target: TbRND ΔZF_3-4 (Trypanosoma brucei, UniProt Q38DE2 41-341); experiment: X-ray crystallography (1.77 A); Ca2+ (10 mM CaCl2), Zn2+; EMSA: 20 mM Tris-HCl pH 8.0, 200 mM NaCl, 2 mM DTT, 0.2 uM FAM-RNA, 1 h on ice; 6% native PAGE in 0.5x TBE at 4 C; conditions: protein: recombinant; tags: His-SUMO removed by Ulp1; single strand

Nc1ncnc2c1ncn2[C@@H]1O[C@H](COP(=O)(O)O)[C@@H](O)[C@H]1O [AMP]
X-ray crystal structure (soak of apo crystals) ([1]; site: R0 of Exo domain (none in ZF1 groove), b55 says ATP soaked crystals): one AMP was captured at the R0 site in the A-form structure

Nc1ccn([C@@H]2O[C@H](COP(=O)(O)O)[C@@H](O)[C@H]2O)c(=O)n1 [CMP]
X-ray crystal structure (soak of apo crystals) ([1]; site: ZF1 groove, also R2 site of Exo domain): one CMP nucleotide was bound in ZF1 groove

Nc1nc2c(ncn2[C@@H]2O[C@H](COP(=O)(O)O)[C@@H](O)[C@H]2O)c(=O)[nH]1 [GMP]
X-ray crystal structure (soak of apo crystals) ([1]; sites: R0 and R2 of Exo domain, ZF1 groove, ZF2 groove (Mn2+-dependent), 2.25 A): we observed two GMP molecules in the G-form structure

O=c1ccn([C@@H]2O[C@H](COP(=O)(O)O)[C@@H](O)[C@H]2O)c(=O)[nH]1 [UMP]
X-ray crystal structure (soak of apo crystals) ([1]; site: ZF1 groove): one well-defined UMP molecule was captured in the groove of ZF1

B1: RNA1 (ssRNA)
RNA: AACUUGUUUUUUUU
binding result [2]: no binding

B2: RNA-12U (ssRNA)
RNA: UUUUUUUUUUUU
binding result [3]: binds
